Data set [1] addresses T1, Serine/threonine-protein kinase B-raf (Homo sapiens, UniProt P15056, V600E). Put plainly: Inhibition of recombinant C-terminal his6-tagged B-Raf (437 to 765 residues) V600E mutant (unknown origin) catalytic domain expressed in baculovirus infected Sf21 insect cells using biotinylated Mek substrate preincubated for 60 mins measured after 3 hrs by amplified luminescence proximity homogeneous assay.

The target in data set [2] is T1, Serine/threonine-protein kinase B-raf. Put plainly: Inhibition of B-Raf V600E mutant in human A375 cells assessed as reduction in ERK phosphorylation. It counts as cell-based.
For data set [3], the system named is A-375. Put plainly: Antiproliferative activity against human A375 cells. The class given is functional, cell-based.
Data set [4] addresses MAP kinase p38 (Homo sapiens, UniProt O15264+Q15759+Q16539+P53778). As to the kind of experiment: Inhibition of P38 (unknown origin). It counts as protein assay.
For data set [5], the species on record is Homo sapiens. As to the kind of experiment: Selectivity ratio of IC50 for P38 (unknown origin) to IC50 for recombinant C-terminal his6-tagged B-Raf (437 to 765 residues) V600E mutant (unknown origin) expressed in baculovirus infected Sf21 insect cells.
A short description of data set [6]: Solubility of the compound in PBS at pH 7. It counts as physicochemical.
In data set [7] the target is Vascular endothelial growth factor receptor 2 (Homo sapiens, UniProt P35968). Put plainly: Inhibition of VEGFR2 (unknown origin).
For data set [8], the species on record is Homo sapiens. As to the kind of experiment: Selectivity ratio of IC50 for VEGFR2 (unknown origin) to IC50 for recombinant C-terminal his6-tagged B-Raf (437 to 765 residues) V600E mutant (unknown origin) expressed in baculovirus infected Sf21 insect cells.
Data set [9] concerns the target Platelet-derived growth factor receptor alpha (Homo sapiens, UniProt P16234). Put plainly: Inhibition of PDGFRalpha (unknown origin).
Data set [10] addresses Mast/stem cell growth factor receptor Kit (Homo sapiens, UniProt P10721). As to the kind of experiment: Inhibition of Kit (unknown origin).
Data set [11] concerns the target Ephrin type-A receptor 4 (Homo sapiens, UniProt P54764). As to the kind of experiment: Inhibition of EphA4 (unknown origin).
Data set [12] addresses T2, Ephrin type-B receptor 4 (Homo sapiens, UniProt P54760).
T2 sequence (P54760 whole entry): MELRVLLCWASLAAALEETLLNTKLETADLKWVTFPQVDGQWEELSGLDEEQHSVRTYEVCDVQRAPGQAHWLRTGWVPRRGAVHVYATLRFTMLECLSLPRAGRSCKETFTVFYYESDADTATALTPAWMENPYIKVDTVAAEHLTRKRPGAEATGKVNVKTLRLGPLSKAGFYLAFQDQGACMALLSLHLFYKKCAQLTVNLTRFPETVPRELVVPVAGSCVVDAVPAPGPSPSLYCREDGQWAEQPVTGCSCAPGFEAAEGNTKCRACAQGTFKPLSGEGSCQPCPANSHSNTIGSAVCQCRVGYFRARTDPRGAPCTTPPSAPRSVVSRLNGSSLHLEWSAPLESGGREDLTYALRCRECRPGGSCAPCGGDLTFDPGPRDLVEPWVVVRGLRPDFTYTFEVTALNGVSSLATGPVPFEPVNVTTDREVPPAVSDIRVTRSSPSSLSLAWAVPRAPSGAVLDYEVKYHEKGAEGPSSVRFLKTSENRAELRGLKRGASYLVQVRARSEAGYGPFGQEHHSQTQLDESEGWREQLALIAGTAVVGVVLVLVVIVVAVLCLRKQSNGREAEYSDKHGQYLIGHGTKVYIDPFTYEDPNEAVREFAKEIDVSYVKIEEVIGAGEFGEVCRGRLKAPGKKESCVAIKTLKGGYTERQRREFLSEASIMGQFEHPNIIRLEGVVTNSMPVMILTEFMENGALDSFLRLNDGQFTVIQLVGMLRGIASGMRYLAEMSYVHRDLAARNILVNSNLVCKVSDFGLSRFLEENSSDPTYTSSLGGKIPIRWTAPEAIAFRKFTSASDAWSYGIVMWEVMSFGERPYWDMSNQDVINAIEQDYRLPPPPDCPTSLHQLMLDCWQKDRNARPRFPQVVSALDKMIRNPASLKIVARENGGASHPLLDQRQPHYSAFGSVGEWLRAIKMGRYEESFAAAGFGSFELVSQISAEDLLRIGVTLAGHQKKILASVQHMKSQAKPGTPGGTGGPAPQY
Put plainly: Inhibition of EphB4 (unknown origin).

Data set [13] addresses Tyrosine-protein kinase Lyn (Homo sapiens, UniProt P07948). Put plainly: Inhibition of Lyn (unknown origin).
Data set [14] can be described thus: Clearance in mouse at 20 mg/kg, po administered as single dose. It counts as ADME, organism-based. As to conditions: in vivo.
Data set [15] concerns Mus musculus. Put plainly: Volume of distribution in mouse at 20 mg/kg, po administered as single dose. The class given is ADME, organism-based. The conditions noted are these: in vivo.
Data set [16] is described as follows: Half life in mouse at 20 mg/kg, po administered as single dose. As to conditions: in vivo. The class given is ADME, organism-based.
Data set [17] can be described thus: Oral bioavailability in mouse at 20 mg/kg administered as single dose. It counts as ADME, organism-based. The conditions noted are these: in vivo.

Converted amounts (≈) assume the structure as drawn. Some results are limits rather than exact numbers.

T1 sequence (P15056 2-766 V600E limits assumed): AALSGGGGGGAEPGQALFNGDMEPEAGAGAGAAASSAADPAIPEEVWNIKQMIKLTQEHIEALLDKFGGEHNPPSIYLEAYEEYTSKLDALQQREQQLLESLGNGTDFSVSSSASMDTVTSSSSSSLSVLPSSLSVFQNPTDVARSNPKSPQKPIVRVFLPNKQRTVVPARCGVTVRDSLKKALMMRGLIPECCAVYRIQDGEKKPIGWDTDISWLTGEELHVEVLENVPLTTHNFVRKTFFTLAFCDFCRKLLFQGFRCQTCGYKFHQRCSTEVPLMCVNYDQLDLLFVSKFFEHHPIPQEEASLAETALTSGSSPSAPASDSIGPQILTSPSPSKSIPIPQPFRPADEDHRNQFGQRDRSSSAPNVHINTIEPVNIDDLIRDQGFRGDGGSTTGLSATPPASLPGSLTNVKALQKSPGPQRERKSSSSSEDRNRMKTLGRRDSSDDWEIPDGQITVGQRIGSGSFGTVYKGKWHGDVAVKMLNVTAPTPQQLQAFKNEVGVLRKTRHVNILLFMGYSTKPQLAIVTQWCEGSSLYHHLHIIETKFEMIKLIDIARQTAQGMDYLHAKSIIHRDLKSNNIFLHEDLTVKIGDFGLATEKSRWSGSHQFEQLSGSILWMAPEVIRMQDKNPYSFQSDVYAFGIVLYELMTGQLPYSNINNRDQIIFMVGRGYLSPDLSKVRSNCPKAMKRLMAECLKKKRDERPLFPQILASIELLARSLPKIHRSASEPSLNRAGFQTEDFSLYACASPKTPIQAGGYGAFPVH
Sequence of Vascular endothelial growth factor receptor 2 (P35968 whole entry, the tested form may be a part): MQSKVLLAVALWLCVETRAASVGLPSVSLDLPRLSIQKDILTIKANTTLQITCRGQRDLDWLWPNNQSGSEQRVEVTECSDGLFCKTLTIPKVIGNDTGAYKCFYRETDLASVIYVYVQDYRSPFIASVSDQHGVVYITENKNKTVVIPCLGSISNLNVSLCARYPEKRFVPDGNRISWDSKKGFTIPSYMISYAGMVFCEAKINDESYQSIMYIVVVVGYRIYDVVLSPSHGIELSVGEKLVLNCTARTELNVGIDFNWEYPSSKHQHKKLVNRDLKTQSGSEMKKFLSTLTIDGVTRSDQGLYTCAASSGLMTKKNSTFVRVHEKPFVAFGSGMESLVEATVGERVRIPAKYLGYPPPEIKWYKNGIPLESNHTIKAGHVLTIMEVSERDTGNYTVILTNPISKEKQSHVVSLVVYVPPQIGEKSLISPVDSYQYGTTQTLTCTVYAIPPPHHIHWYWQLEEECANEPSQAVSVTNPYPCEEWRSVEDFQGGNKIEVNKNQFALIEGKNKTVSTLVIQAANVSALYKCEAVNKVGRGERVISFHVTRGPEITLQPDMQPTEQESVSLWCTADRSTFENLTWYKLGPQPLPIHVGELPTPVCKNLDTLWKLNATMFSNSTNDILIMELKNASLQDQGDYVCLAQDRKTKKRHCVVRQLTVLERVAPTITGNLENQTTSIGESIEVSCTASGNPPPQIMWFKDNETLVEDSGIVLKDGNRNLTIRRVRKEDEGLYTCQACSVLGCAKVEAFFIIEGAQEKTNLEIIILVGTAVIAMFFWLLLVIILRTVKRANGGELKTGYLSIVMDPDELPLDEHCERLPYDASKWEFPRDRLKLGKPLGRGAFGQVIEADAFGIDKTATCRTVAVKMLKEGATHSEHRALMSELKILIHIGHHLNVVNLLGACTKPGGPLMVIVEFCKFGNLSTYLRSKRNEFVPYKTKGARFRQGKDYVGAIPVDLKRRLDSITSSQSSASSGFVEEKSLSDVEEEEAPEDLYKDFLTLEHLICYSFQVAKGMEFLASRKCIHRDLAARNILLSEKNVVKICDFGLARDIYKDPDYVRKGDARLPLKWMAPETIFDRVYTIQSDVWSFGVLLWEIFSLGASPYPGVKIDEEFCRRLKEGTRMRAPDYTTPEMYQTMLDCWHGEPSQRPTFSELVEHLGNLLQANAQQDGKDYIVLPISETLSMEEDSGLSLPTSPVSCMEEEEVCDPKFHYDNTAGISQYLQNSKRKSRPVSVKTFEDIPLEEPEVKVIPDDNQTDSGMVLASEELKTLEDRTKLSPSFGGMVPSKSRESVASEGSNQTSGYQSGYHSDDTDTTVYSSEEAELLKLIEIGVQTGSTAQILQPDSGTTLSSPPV
Sequence of Mast/stem cell growth factor receptor Kit (P10721 whole entry): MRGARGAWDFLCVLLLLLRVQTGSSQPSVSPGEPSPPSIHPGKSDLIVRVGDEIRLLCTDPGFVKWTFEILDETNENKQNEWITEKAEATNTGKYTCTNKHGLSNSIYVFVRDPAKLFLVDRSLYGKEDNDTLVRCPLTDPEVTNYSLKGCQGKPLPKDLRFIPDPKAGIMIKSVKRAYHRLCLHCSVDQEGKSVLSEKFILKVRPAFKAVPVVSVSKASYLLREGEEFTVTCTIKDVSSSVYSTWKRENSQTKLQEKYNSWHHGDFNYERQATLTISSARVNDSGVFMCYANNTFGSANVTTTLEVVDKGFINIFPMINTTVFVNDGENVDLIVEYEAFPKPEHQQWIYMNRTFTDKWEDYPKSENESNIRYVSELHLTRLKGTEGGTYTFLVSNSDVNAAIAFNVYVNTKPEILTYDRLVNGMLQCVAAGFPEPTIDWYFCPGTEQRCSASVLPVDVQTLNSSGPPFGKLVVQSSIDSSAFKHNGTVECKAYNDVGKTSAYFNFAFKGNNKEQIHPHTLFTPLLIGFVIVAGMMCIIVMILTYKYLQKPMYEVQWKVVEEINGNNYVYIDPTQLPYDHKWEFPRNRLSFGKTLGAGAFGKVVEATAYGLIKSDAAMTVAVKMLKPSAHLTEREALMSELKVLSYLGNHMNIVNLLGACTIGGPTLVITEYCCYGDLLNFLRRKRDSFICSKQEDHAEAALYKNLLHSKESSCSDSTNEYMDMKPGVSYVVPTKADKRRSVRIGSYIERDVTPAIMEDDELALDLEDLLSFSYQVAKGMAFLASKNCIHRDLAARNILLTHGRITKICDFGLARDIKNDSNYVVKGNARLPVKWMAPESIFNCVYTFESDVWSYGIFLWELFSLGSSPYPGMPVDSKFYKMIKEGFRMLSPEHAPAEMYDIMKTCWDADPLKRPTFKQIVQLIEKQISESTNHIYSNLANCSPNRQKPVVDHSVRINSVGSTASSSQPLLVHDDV
Sequence of Ephrin type-A receptor 4 (P54764 whole entry): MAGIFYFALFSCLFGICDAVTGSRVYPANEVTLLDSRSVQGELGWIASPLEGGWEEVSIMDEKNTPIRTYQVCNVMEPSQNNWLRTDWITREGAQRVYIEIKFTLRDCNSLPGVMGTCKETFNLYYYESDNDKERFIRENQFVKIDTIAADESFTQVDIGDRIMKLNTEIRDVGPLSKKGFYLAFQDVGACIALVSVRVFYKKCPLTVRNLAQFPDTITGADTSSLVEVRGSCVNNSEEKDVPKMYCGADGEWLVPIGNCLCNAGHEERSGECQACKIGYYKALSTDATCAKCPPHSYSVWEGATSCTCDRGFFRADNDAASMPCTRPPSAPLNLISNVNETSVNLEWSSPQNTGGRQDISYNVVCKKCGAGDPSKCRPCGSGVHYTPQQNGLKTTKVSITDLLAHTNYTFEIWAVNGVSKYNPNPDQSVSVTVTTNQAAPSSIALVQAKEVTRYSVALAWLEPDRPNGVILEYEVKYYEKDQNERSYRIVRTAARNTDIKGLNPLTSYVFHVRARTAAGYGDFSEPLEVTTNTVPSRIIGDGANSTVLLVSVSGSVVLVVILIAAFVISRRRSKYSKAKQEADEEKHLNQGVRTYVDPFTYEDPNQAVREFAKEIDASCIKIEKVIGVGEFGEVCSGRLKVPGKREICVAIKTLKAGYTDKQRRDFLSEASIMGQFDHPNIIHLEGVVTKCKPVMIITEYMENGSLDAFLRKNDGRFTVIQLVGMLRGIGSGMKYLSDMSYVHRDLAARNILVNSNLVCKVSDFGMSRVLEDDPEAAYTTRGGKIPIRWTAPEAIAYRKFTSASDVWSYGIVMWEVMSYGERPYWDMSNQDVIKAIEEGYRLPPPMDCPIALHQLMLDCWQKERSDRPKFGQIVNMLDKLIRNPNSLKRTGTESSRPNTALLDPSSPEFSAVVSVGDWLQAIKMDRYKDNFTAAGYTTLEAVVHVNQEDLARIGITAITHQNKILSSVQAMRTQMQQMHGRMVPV
Sequence of Tyrosine-protein kinase Lyn (P07948 whole entry): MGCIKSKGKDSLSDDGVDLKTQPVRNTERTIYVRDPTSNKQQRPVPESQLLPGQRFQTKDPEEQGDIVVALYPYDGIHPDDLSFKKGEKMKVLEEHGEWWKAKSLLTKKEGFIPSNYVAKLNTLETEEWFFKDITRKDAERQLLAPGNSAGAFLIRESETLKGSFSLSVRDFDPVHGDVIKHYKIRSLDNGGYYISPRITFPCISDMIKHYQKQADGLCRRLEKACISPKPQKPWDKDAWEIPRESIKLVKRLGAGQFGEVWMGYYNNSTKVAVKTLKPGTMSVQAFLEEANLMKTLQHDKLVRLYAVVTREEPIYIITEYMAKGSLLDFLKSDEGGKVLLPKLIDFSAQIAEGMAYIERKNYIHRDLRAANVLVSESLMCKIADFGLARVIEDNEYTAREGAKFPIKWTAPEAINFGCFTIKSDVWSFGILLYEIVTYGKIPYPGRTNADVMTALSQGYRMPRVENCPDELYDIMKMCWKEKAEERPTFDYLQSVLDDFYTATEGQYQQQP

As to `CC(=O)Nc1cn2cc(-c3cc(NC(=O)c4cc(N5CCN(C)C[C@@H]5C)cc(C(F)(F)F)c4)ccc3C)ccc2n1`, the IC50 – broadly, the concentration at which inhibition is half-maximal – in data set [1] was determined as 3 nM; in data set [4], 2 nM. Further, the EC50 (usually the concentration giving half of the maximal effect) in data set [2] worked out at 240 nM; in [3], 340 nM. In addition, in [5], the Ratio IC50 amounted to 0.7. The amount in solution in data set [6] (solubility) came to 122 µM (≈ 68.9 µg/mL).
Regarding `CC(=O)Nc1cn2cc(-c3cc(NC(=O)c4ccc(CN5CCN(C)CC5)c(C(F)(F)F)c4)ccc3C)ccc2n1`, the IC50 in data set [1] was 5 nM; in data set [4], less than 11 nM; in data set [7], 110 nM. Further, the EC50 in data set [2] was determined as 130 nM; in data set [3], 430 nM. For the same compound, the values for the Ratio IC50 in data set [5] and in data set [8] were less than 2 and 20, respectively. The solubility (in general, the dissolved amount per volume that the medium holds) in [6] was determined as 4.6 µM (≈ 2.6 µg/mL).
With `CC(=O)Nc1cn2cc(-c3cc(NC(=O)c4cccc(C(C)(C)C)c4)ccc3C)ccc2n1`, the figures for the IC50 in data set [1], in data set [4] and in [7] were 0.3 nM, 2 nM and 44 nM, respectively. In addition, the EC50 came out at 25 nM in data set [2] and 57 nM in data set [3]. In addition, the figures for the Ratio IC50 in data set [5] and in [8] were 7 and 146, respectively.
Consider `CC(=O)Nc1cn2cc(-c3cc(NC(=O)c4cccc(Cl)c4)ccc3C)ccc2n1`, for which the values for the concentration for half-maximal inhibition (IC50) in data set [1], in data set [4] and in [7] were 0.3 nM, 3100 nM and 2700 nM, respectively. The EC50 was 480 nM in [2] and 70 nM in data set [3]. In addition, the Ratio IC50 stood at 10000 in [5] and 9000 in data set [8].
Turning to `CC(=O)Nc1cn2cc(-c3cc(NC(=O)c4cc(C(F)(F)F)ccn4)ccc3C)ccc2n1`, the IC50 in data set [1] was determined as 0.9 nM; in data set [4] it was 660 nM; in data set [7] it was 2000 nM. For the same compound, the EC50 is 770 nM in [2] and 280 nM in [3]. Further, the results for the Ratio IC50 in data set [5] and in data set [8] were 700 and 2000, respectively.
In the case of `CC(=O)Nc1cn2cc(-c3cc(NC(=O)c4ccccc4)ccc3C)ccc2n1`, the IC50 in [1] amounted to 61 nM; in data set [4] it was 1600 nM; in [7], 11000 nM. Besides, the EC50 in data set [2] was determined as 540 nM; in [3], 100 nM. Moreover, the figures for the Ratio IC50 in data set [5] and in data set [8] were 3 to 20 and 18, respectively.
On to `CC(=O)Nc1cn2cc(-c3cc(NC(=O)c4cccc(C(F)(F)F)c4)ccc3C)ccc2n1`, for which the IC50 in data set [1] is 0.2 nM; in data set [4], 220 nM; in data set [7], 320 to 670 nM; in data set [9] it was 8 nM; in data set [10], 52 nM; in data set [11], 74 nM. The IC50 was found to be 150 nM in data set [12] and 170 nM in data set [13]. For the same compound, the EC50 was found to be 230 nM in [2] and 86 nM in [3]. Besides, the Ratio IC50 in [5] came to 1100; in data set [8] it was 1600. For the same compound, in data set [6], the solubility was less than 0.4 µM. Moreover, the CL/F (as a rule, clearance divided by bioavailability, as obtained after extravascular dosing) in data set [14] came out at 18 mL/min/kg. Besides, in data set [15], the Vd came out at 2.15 L/kg. The half-life (in general, the time in which the quantity being followed falls by half) in [16] was found to be 2.45 h. In data set [17], the bioavailability (in general, dose-corrected exposure relative to a reference, in per cent) was 73%.
For the compound `CC(=O)Nc1cn2cc(-c3cc(NC(=O)c4cccc(C(F)(F)F)n4)ccc3C)ccc2n1`, the IC50 in [1] is 6 nM; in [4], more than 25000 nM. The EC50 in data set [2] is more than 10000 nM; in data set [3] it was 130 nM. Moreover, in data set [5], the Ratio IC50 was more than 4000.

For the origin of these results see ChEMBL document CHEMBL4177673, “Imidazo[1,2-a]pyridin-6-yl-benzamide analogs as potent RAF inhibitors” (Bioorg Med Chem Lett, 2017).
